Literature values in patent US20130203858A1, “Fast-Dissolving Solid Pharmaceutical Form for Treating Bacterial Infections” (Nanocore Biotecnologia S.A., priority 2010, published 2013).

Tests used:
[1] = WO2009/061780 composition in the absence of PVP

portion of the drug solubilized in water [1]: about 40%
solubility in water: about 1.2 mg/mL
portion of the drug that solubilises in water (without addition of surfactants): about 20%
SMILES: CS(=O)(=O)c1ccc([C@@H](O)[C@@H](CF)NC(=O)C(Cl)Cl)cc1 [florfenicol, Florfenicol]
